The source of these data is ChEMBL document CHEMBL2163249, “Exploration of natural compounds as sources of new bifunctional scaffolds targeting cholinesterases and beta amyloid aggregation: the case of chelerythrine” (Bioorg Med Chem, 2012).

The target of test [1] is Cholinesterase (Homo sapiens, UniProt P06276). In words: Inhibition of human BChE by Ellman's method. The note with it: read-out: IC50.
For test [2], the target named is Cholinesterase (Equus caballus, UniProt P81908). As to the kind of experiment: Inhibition of horse BChE by Ellman's method. As to conditions: read-out: IC50; call rule not given here.
Test [3] has as its target Cholinesterase (Equus caballus) (UniProt P81908). As to conditions: at 2 mg/mL.
Description: Inhibition of horse BChE at 2 mg/ml by Ellman's method
In another test the target is Acetylcholinesterase (Electrophorus electricus, UniProt O42275). In words: Inhibition of electric eel AChE by Ellman's method.
Test [4] deals with Acetylcholinesterase (Electrophorus electricus) (UniProt O42275). As to conditions: at 2 mg/mL.
Description: Inhibition of electric eel AChE at 2 mg/ml by Ellman's method

Structures can show the parent of a compound that is named as a salt.

Chain of Acetylcholinesterase (O42275 whole entry): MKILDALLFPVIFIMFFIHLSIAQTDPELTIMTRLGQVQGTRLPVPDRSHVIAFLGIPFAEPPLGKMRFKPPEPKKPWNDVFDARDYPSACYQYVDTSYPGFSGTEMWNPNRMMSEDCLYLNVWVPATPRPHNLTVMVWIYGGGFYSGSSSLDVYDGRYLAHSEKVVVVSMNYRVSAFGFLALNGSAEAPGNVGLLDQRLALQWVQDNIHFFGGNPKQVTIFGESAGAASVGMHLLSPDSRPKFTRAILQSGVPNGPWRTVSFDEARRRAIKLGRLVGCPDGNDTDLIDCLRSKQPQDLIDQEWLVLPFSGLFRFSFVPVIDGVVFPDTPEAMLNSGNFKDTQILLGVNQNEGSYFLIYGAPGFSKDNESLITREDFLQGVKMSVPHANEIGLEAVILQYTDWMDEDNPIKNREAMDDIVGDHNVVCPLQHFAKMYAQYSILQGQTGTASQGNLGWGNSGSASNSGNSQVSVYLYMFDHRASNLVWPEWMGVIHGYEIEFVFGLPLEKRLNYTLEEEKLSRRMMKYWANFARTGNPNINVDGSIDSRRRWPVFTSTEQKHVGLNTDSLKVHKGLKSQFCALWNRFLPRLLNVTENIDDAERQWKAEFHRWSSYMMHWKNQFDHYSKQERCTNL
Chain of Acetylcholinesterase (Electrophorus electricus) (O42275 24-633 limits assumed): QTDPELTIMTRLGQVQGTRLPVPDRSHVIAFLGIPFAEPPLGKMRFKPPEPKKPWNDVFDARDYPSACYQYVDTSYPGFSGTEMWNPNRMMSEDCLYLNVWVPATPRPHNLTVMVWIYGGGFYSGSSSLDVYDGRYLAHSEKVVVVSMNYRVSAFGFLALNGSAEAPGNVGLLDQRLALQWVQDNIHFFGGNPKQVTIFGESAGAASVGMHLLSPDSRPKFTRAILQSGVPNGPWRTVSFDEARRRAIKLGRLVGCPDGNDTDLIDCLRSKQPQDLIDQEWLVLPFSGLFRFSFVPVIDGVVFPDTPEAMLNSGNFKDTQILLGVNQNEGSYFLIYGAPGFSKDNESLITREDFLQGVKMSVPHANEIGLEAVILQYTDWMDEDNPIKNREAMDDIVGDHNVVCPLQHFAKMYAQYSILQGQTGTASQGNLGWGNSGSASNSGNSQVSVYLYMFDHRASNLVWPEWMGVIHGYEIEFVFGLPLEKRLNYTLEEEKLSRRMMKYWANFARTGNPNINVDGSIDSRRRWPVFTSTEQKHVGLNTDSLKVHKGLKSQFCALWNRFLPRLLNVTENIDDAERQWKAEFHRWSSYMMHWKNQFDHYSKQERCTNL
Chain of Cholinesterase (Equus caballus, UniProt P81908) (P81908 whole entry): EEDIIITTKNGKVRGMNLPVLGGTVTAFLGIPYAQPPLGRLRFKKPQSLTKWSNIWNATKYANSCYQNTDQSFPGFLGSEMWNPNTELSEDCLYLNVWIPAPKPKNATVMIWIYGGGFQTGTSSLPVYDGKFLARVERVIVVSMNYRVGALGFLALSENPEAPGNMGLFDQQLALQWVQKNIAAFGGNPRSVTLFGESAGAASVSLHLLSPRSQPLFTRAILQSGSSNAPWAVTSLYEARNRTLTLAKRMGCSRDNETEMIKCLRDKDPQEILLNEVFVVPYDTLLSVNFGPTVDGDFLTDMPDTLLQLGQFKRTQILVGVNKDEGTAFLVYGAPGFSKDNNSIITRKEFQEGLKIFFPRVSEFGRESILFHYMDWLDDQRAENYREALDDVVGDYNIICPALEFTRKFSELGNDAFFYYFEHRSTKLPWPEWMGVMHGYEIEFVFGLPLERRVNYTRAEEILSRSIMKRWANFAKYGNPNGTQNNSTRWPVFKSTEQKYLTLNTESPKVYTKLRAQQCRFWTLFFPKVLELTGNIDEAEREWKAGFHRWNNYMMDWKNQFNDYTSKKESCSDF
Chain of Cholinesterase (Equus caballus) (P81908 whole entry): as above
Chain of Cholinesterase (Homo sapiens, UniProt P06276) (P06276 whole entry): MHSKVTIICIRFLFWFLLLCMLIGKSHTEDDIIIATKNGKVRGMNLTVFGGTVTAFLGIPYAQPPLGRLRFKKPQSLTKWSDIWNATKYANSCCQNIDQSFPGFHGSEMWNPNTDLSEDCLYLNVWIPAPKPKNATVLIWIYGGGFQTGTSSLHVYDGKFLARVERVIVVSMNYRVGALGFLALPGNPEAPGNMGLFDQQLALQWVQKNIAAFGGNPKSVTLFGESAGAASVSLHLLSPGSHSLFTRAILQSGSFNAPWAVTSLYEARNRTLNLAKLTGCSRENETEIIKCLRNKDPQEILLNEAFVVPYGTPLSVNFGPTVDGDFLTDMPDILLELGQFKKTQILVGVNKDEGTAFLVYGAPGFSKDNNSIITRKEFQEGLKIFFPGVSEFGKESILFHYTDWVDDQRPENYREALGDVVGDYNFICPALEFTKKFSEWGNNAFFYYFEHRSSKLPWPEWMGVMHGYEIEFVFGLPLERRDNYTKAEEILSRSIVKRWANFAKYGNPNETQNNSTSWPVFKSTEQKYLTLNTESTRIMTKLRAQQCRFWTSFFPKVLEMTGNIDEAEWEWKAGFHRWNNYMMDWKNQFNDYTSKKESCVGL

For `C=C[C@H]1C[N@@]2CC[C@H]1C[C@@H]2[C@@H](O)c1ccnc2ccc(OC)cc12` [QUINIDINE], the IC50 is 1.23 µM at Cholinesterase [1] and 7.37 µM at Cholinesterase [2].

Regarding `COc1cc2c3cc1Oc1c(OC)c(OC)cc4c1[C@@H](Cc1ccc(OC(=O)c5ccc([N+](=O)[O-])cc5)c(c1)Oc1ccc(cc1)C[C@@H]3N(C)CC2)N(C)CC4` [E6 BERBAMINE], the IC50 was 2.14 µM at Cholinesterase [1], “Not Active” at Acetylcholinesterase and 4.2 µM at Cholinesterase [2]. Besides, the inhibition in test [3] amounted to 0.47%.

On to `c1ccc2c(c1)CN1CCCC1=N2` [DESOXYPEGANINE HYDROCHLORIDE HYDRATE], for which the figures for the inhibition in test [3] and in test [4] were 94.8% and 70.6%, respectively. Besides, the figures for the IC50 at Acetylcholinesterase (read-out: IC50) and at Cholinesterase [2] were 11.8 µM and 11.9 µM, respectively.

Take `C=C[C@H]1CN2CC[C@H]1C[C@@H]2[C@@H](O)c1ccnc2ccc(OC)cc12` [QUINIDINE]: the figures for the inhibition in test [3] and in test [4] were 66% and 20.2%, respectively. Moreover, at Acetylcholinesterase, the IC50 result is on record as “Not Active”.

On to `O=c1c(-c2ccc(O)cc2)coc2cc(O)cc(O)c12`, for which the results for the inhibition in test [3] and in test [4] were 10.5% and 7.3%, respectively.

With `CN1CCc2cc3c(cc2[C@H]1[C@@H]1OC(=O)c2c1ccc1c2OCO1)OCO3`, the inhibition in test [3] turned out to be 0.63%; in test [4], 20.7%.

As to `COc1cc(-c2oc3cc(O)ccc3c(=O)c2O)ccc1O`, the figures for the inhibition in test [3] and in test [4] were 12.8% and 3.26%, respectively.

With `C[C@H]1[C@H](C)CC[C@]2(C(=O)O)CC[C@]3(C)C(=CC[C@@H]4[C@@]5(C)CC[C@H](O)C(C)(C)[C@@H]5CC[C@]43C)[C@H]12`, the inhibition in test [3] was 5.32%; in test [4], 16.8%.

`CCCC[C@@H](C)[C@@H](OC(=O)C[C@@H](CC(=O)O)C(=O)O)[C@H](C[C@@H](C)CCCCCC[C@@H](O)C[C@H](O)[C@H](C)N)OC(=O)C[C@@H](CC(=O)O)C(=O)O`: the inhibition in test [3] was 15.1%; in test [4], -8.37%.

On to `O=c1c(O[C@@H]2O[C@H](CO)[C@@H](O)[C@H](O)[C@H]2O)c(-c2ccc(O)c(O)c2)oc2cc(O)cc(O)c12`, for which the values for the inhibition in test [3] and in test [4] were 2.54% and 0.12%, respectively.

Regarding `COc1cc(-c2oc3cc(O)cc(O)c3c(=O)c2O)ccc1O`, the inhibition in test [3] is -2.06%; in test [4], 5.76%.

Take `CC[C@H]1CN2CCc3cc(OC)c(OC)cc3[C@@H]2C[C@@H]1C[C@H]1NCCc2cc(O)c(OC)cc21`: the inhibition was -6.9% in test [3] and 11.9% in test [4].

For the compound `C=C1[C@@H](C)[C@H]2[C@H](Cc3ccccc3)NC(=O)[C@]23[C@H](OC(C)=O)/C=C/[C@@](C)(O)C(=O)[C@@H](C)C/C=C/[C@H]3[C@@H]1O`, the inhibition in test [3] is 3.92%; in test [4], -2.15%.

With `COc1ccc(CC2NCCc3cc(OC)c(OC)cc32)cc1OC` (stereo unspecified), the inhibition was 7.36% in test [3] and 4.06% in test [4].

Consider `CC(=O)OC[C@]12CCC(C)=C[C@H]1O[C@@H]1[C@H](O)[C@@H](OC(C)=O)[C@@]2(C)[C@]12CO2`, for which the inhibition turned out to be 12.3% in test [3] and 23.8% in test [4].

With `CCCC[N+]1(C)[C@@H]2C[C@@H](OC(=O)[C@H](CO)c3ccccc3)C[C@H]1[C@@H]1O[C@@H]12` (stereo partly specified), the inhibition in test [3] is -4.42%; in test [4], 22.5%.

As for `O=c1cc(-c2ccc(O)cc2)oc2cc(O)c([C@@H]3O[C@H](CO)[C@@H](O)[C@H](O)[C@H]3O)c(O)c12`, the inhibition in test [3] came to 1.98%; in test [4] it was 20.7%.

In the case of `CC1=CC(=O)C(C(C)C)=CC1=O`, the inhibition in test [3] is -0.33%; in test [4], 7.9%.

`O=C(/C=C/c1ccc(O)c(O)c1)c1ccc(O)cc1O`: the values for the inhibition in test [3] and in test [4] were -0.63% and 10.1%, respectively.

Turning to `CC(C)=CC[C@@H](O)C1=CC(=O)c2c(O)ccc(O)c2C1=O`, the inhibition stood at 3.58% in test [3] and 15.7% in test [4].

On to `CC1=C2C[C@H]3[C@@H](CC=C4C[C@@H](O)CC[C@@]43C)[C@@H]2CC[C@]12O[C@@H]1C[C@H](C)CN[C@H]1[C@H]2C`, for which the figures for the inhibition in test [3] and in test [4] were 5.84% and -3.81%, respectively.

In the case of `COc1ccc2[nH]cc(CCNC(C)=O)c2c1`, the inhibition in test [3] came to 1.01%; in test [4], 15.5%.

For `CCCCCCCCCCC1=C(C)C(=O)C(OC)=C(OC)C1=O`, the inhibition in test [3] is 0.01%; in test [4], 21.8%.

With `c1ccc2c(Cc3c[nH]c4ccccc34)c[nH]c2c1`, the inhibition in test [3] was 21.7%; in test [4] it was 4.61%.

For `COC(=O)[C@H]1[C@H]2C[C@H]3c4[nH]c5ccccc5c4CCN3C[C@@H]2CC[C@@H]1O`, the inhibition was found to be 6.02% in test [3] and 15.8% in test [4].

On to `COc1cc(CCC(C)=O)ccc1O`, for which the inhibition in test [3] is 10.8%; in test [4], -5.32%.

As for `CN(C)CCc1ccc(O)cc1`, the inhibition in test [3] is -2.06%; in test [4] it was -4.35%.

`O=c1cc(-c2ccccc2)oc2cc(O)ccc12`: the inhibition is -0.25% in test [3] and 24.4% in test [4].

Consider `C[C@@H]1O[C@@H](Oc2c(-c3ccc(O)c(O)c3)oc3cc(O)cc(O)c3c2=O)[C@H](O)[C@H](O)[C@H]1O`, for which the inhibition in test [3] is -6.56%; in test [4], 0.25%.

`CC1=C(/C=C/C(C)=C\C=C\C(C)=C\C(=O)O)C(C)(C)CCC1`: the inhibition was -2.78% in test [3] and 14.3% in test [4].

`CC1(C)C2CCC1(C(=O)O)C(=O)C2` (stereo unspecified): the inhibition in test [3] was -2.51%; in test [4], 16.7%.

Consider `C[C@H]1[C@H](C)CC[C@]2(C(=O)O)CC[C@]3(C)C(=CC[C@@H]4[C@@]5(C)C[C@@H](O)[C@H](O)[C@@](C)(CO)[C@@H]5[C@H](O)C[C@]43C)[C@H]12`, for which the values for the inhibition in test [3] and in test [4] were -7.93% and -1.33%, respectively.

`C/C1=C/CCC(C)(O)/C=C\C(C(C)C)C(OC(=O)c2ccc(O)cc2)C1` (stereo unspecified): the inhibition in test [3] is -0.77%; in test [4], 23.7%.

Take `COC1=CC(=O)C[C@@H](C)[C@]12Oc1c(Cl)c(OC)cc(OC)c1C2=O`: the inhibition in test [3] was -4.49%; in test [4], -8.73%.

Regarding `CC[C@@H](C(=O)[C@@H](C)[C@@H](O)[C@H](C)CCc1ccc(C)c(O)c1C(=O)O)[C@H]1O[C@](CC)([C@H]2CC[C@](O)(CC)[C@H](C)O2)C[C@@H]1C`, the inhibition is 10.5% in test [3] and -1.88% in test [4].

As for `COC1=C(C(C)=O)C2=C(C)Cc3c(OC)c(=O)c(O)c4cc(OC)c5c(OC)cc(O)c6c(c2c3c4c56)C1=O`, the inhibition is -0.88% in test [3] and 4.6% in test [4].

Take `COc1cc2c(cc1CC=C(C)C)C(=O)C[C@@H](c1ccc(O)cc1)O2`: the inhibition in test [3] amounted to 4.89%; in test [4], 23.2%.

For `COc1cc2c(cc1OC)[C@@H]1C(=O)c3ccc4c(c3O[C@@H]1CO2)C=CC(C)(C)O4`, the inhibition in test [3] was 2.21%; in test [4], -8.14%.

As to `COc1cc(O)c(C(=O)/C=C/c2ccccc2)c(OC)c1`, the inhibition is 4.56% in test [3] and 27.1% in test [4].

On to `CC(C)(O)[C@@H]1[C@H]2OC(=O)[C@@H]1[C@]1(O)C[C@H]3O[C@]34C(=O)O[C@H]2[C@]14C`, for which the inhibition was found to be 1.96% in test [3] and 22.6% in test [4].

For the compound `C[C@H]1O[C@@H](Oc2c(-c3cc(O)c(O)c(O)c3)oc3cc(O)cc(O)c3c2=O)[C@@H](O)[C@@H](O)[C@@H]1O`, the inhibition is -2.1% in test [3] and 20.9% in test [4].

With `c1cc2c(cc1[C@H]1OC[C@@H]3[C@H]1CO[C@H]3c1ccc3c(c1)OCO3)OCO2`, the figures for the inhibition in test [3] and in test [4] were -3.5% and 4.7%, respectively.

Take `C[C@H]1CCC/C=C/[C@@H]2C[C@H](O)C[C@H]2[C@H](O)/C=C/C(=O)O1`: the inhibition is 5.24% in test [3] and -3.21% in test [4].

Consider `CCC[C@@H]1C[C@@H](C(=O)N[C@@H]([C@H]2O[C@H](SC)[C@H](O)[C@@H](O)[C@H]2O)[C@@H](C)O)N(C)C1`, for which the results for the inhibition in test [3] and in test [4] were -2.36% and -3.63%, respectively.

For the compound `C[C@@H]1O[C@@H](OC[C@H]2O[C@@H](Oc3c(-c4ccc(O)c(O)c4)oc4cc(O)cc(O)c4c3=O)[C@H](O)[C@@H](O)[C@@H]2O)[C@H](O)[C@H](O)[C@H]1O`, the inhibition in test [3] is 4.32%; in test [4] it was -0.25%.

Consider `COc1ccc(/C=C/c2cc(O)cc(O[C@@H]3O[C@H](CO)[C@@H](O)[C@H](O)[C@H]3O)c2)cc1O`, for which the figures for the inhibition in test [3] and in test [4] were -4.38% and -3.62%, respectively.

As for `CC(=O)C1=C(O)C=C2Oc3c(C(C)=O)c(O)c(C)c(O)c3[C@@]2(C)C1=O`, the inhibition in test [3] was 4.28%; in test [4] it was 2.06%.

As for `CC(=O)O[C@H]1C(=O)[C@@]2(C)[C@H]([C@H](OC(=O)c3ccccc3)[C@]3(O)C[C@H](OC(=O)[C@H](O)[C@@H](NC(=O)c4ccccc4)c4ccccc4)C(C)=C1C3(C)C)[C@]1(OC(C)=O)CO[C@@H]1C[C@@H]2O`, the results for the inhibition in test [3] and in test [4] were -2.88% and 12.5%, respectively.

In the case of `Cc1c(C(=O)O)c(O)cc2c1C(=O)c1c(O)c([C@@H]3O[C@H](CO)[C@@H](O)[C@H](O)[C@H]3O)c(O)c(O)c1C2=O`, the inhibition was -1.98% in test [3] and 21.5% in test [4].

With `COc1cc2c(c(OC)c1OC)-c1ccc(OC)c(=O)cc1[C@@H](NC=O)CC2`, the inhibition was -0.59% in test [3] and 23.9% in test [4].

As for `O=C1/C(=C/c2ccc(O)c(O)c2)Oc2cc(O)ccc21`, the inhibition in test [3] was -2.22%; in test [4], 24.4%.

Consider `CC[C@H]1[C@@H]2C[C@H]3[C@@H]4N(C)c5ccccc5[C@]45C[C@@H]([C@@H]2[C@H]5O)N3[C@@H]1O`, for which the inhibition in test [3] turned out to be 22.3%; in test [4], 29.8%.

With `CCCCCCCCCCCCCC[C@@H](O)[C@@H](O)[C@@H](N)CO`, the values for the inhibition in test [3] and in test [4] were 7.46% and 24.4%, respectively.
